Reference: publication PMC7719179, “Small molecule inhibition of Dynamin-dependent endocytosis targets multiple niche signals and impairs leukemia stem cells” (Nature Communications, 2020)
Several values for one entry are separate records, joined by “and”; a condition that tells them apart may be missing. Equal values may be shown once.

Tests used:
[1] = tested on: IL-7 signalling (pStat5) in Ba/F3-IL7R cells; assay: IL-7-induced phospho-Stat5 in Ba/F3-IL7R cells (phosphoflow); assay type: cell-based, murine; details: for pStat5 (MFI): replicates
Protocol: Ba/F3 cells (kindly provided by a person from The Walter and Eliza Hall Institute of Medical Research) were infected with pMIG-R1/Il7r retroviral supernatants produced in 293T cells, and transduced cells were sorted with a BD Influx (BD Australia) and selected by culture in medium supplemented with 5 ng/mL rmIL-7 (#217-17, Pepro Tech, Rocky Hill NJ, USA) for 7 days. Ba/F3 cells stably expressing Il7r (Ba/F3-IL7R) were infected with TxTCPVIR-Stat5-CA retroviral supernatants produced in 293T. Cell sorting was performed with a BD Influx and transduced cells were treated with doxycycline for 48 h to induce the expression of the Stat5-CA-T2A-mCherry fusion protein.
(§1) Phosphoflow analysis was performed as previously described. Briefly, 2 × 10^6 cells stained for surface markers were subsequently resuspended into PBS 1× + 4% v/v paraformaldehyde and incubated for 10 min at 4 °C for fixation. Fixed cells were washed twice using PBS 1×, then resuspended in pre-chilled at −20 °C Perm Buffer III (BD Pharmingen) and incubated 30 min at 4 °C for permeabilization. Cells were washed twice using PBS 1× and incubated overnight at 4 °C in PBS 1× + 2% v/v fetal calf serum (FCS) with Cell Signalling purified antibodies (Genesearch Pty Ltd, Arundel QLD, Australia) against pSTAT5 (Tyr694; #9359), phospho-p38 MAPK (Thr180/Tyr182; #4511), phospho-p44/42 (Erk1/2; #9102), phospho-S6 (Ser235/236; #4856) and phospho-Akt (Ser473; #9271) or isotype control. For intracellular HES1 detection, cells stained for surface markers were subsequently fixed and permeabilized using the BD Cytofix/Cytoperm^TM Kit and incubated overnight at 4 °C in PBS 1× + 2% v/v FCS with a purified antibody against HES1 (D6PU; #11988, Cell Signalling) or isotype control. After staining with primary antibodies for phosphoflow or intracellular detection, cells were incubated in permeabilization buffer with donkey Alexa Fluor 488-conjugated anti-rabbit secondary antibody (A-21206, lot #1910751, Molecular Probes, Invitrogen) or goat Alexa Fluor 546-conjugated anti-rabbit secondary antibody (A-11035, lot #1904467, Molecular Probes, Invitrogen) for 1 h on ice, and washed twice in PBS 1×. Fluorescence-activated cell sorting (FACS) analysis was performed using LSRII and LSR Fortessa cytometers, following the gating strategies described in Supplementary Fig. 11. Cell sorting was performed with a FACSAria or BD Influx.
For in vitro IL-7 stimulation assays, cells were starved in serum-free DMEM at 37 °C, then incubated with either vehicle or Dynole 34-2 or Ruxolitinib (INCB018424; #S1378, Selleckchem), or DAPT (GSI-IX; #S2215, Selleckchem) resuspended in DMSO for 1 h. Thymocytes were subsequently stimulated with 25 ng/mL IL-7 at 37 °C for 20 min and washed twice using cold PBS 1×. Cells were incubated with 25 ng/mL Rat IgG (Sigma-Aldrich Pty Ltd, Castle Hill NSW, Australia) and with a PE-conjugated antibody for detection of IL-7R (CD127) for 1 h on ice, as described in the FACS analysis section. PE-conjugated isotype was used as negative control. Cells were washed twice, fixed and phosphoflow analysis performed as described in the FACS analysis section. The analysis was performed in triplicate and the mean fluorescence intensity (MFI) observed without stimulation was reported as 100%.

[2] = tested on: pSTAT5 and HES1 in ETP12 and ALL8 patient-derived cells; assay: pSTAT5 and HES1 in ETP12 and ALL8 cells harvested from treated recipients; assay type: in vivo, human
Protocol: as §1
Patient-derived xenograft models were established as previously described[97],[98]. […] For transplantation assays, 10^6 splenocytes harvested from successfully engrafted primary human ETP-ALL or T-ALL xenografts were injected into nonobese diabetic/severe combined immunodeficient (NOD.Cg-Prkdc^scid, also termed NOD/SCID) or NOD/SCID/Il2rg^tm1wjl/SzJ (NSG) mice[99]. Moreover, 1.5 × 10^6 cells splenocytes harvested from successfully engrafted patient-derived AML xenografts were injected into nonobese diabetic/severe immunodeficient (NOD.Cg-Rag1^tm1MomIl2rg^tm1wjl/SzJ, also termed NRG) mice expressing human IL-3, human GM-CSF and human SCF from the SGM3 triple transgene (NRGS)[100]. Engraftment into recipients was monitored by FACS analysis of peripheral blood as previously described. […] The in vivo efficacy of Dynole 34-2 was assessed 24 h after the last injection by FACS analysis and immunohistochemistry as described in Supplementary Methods. […]

## CCCCCCCCNC(=O)C(C#N)=Cc1cn(CCCN(C)C)c2ccccc12 [Dynole 34-2, 2-Cyano-N-octyl-3-(1-(3-dimethylaminopropyl)-1H-indol-3-yl)-acrylamide]
[1]; Ba/F3-IL7R cells, +IL-7, Dynole 34-2 0.2
  pStat5 (MFI): 2033 MFI and 1947 MFI and 1891 MFI
[1]; Ba/F3-IL7R cells, +IL-7, Dynole 34-2 1.0
  pStat5 (MFI): 1526 MFI and 1732 MFI and 1712 MFI
[1]; Ba/F3-IL7R cells, +IL-7, Dynole 34-2 5.0
  pStat5 (MFI): 1296 MFI and 1207 MFI and 1690 MFI
[1]; Ba/F3-IL7R cells, +IL-7, Dynole 34-2 10.0
  pStat5 (MFI): 1304 MFI and 1113 MFI and 1201 MFI
[1]; Ba/F3-IL7R cells, +IL-7, Dynole 34-2 25.0
  pStat5 (MFI): 1259 MFI and 1141 MFI and 1161 MFI
[1]; Ba/F3-IL7R cells, result in words
  inhibition of IL-7 signalling as measured by loss of phospho-Stat5: dose-dependent inhibition
[1]; Mus musculus, Ba/F3-IL7R cells + IL-7, flow cytometry, read-out: IC50, inhibition of IL-7 signalling (pStat5)
  IC50: 4.29 ± 0.77 µM
[2]; PDX ALL8
  HES1 (MFI) in human CD45+ cells: 1836 MFI and 2160 MFI and 2094 MFI
  pSTAT5 (MFI) in human CD45+ cells: 2379 MFI and 2645 MFI and 2581 MFI
[2]; PDX ETP12
  HES1 (MFI) in human CD45+ cells: 8443 MFI and 7622 MFI and 8597 MFI and 6696 MFI and 10495 MFI and 10443 MFI
  pSTAT5 (MFI) in human CD45+ cells: 4191 MFI and 3709 MFI and 3790 MFI
